ChEMBL document CHEMBL1201862, “PubChem BioAssay data set” (2004)
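Test compounds were applied to cells in 96-well plates for 48 hours at 5 doses. Abbreviation: GI50, concentration required for 50% inhibition of growth.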 Calls of active or inactive are those of the source. No stated cut-off is given here; in the data, active = GI50 up to about 1.1 µM and inactive = higher.

Assays:
Experiment in all cases: growth of human tumour cells (NCI), 48 h
[1] = system: EKVX
[2] = system: LOX IMVI
[3] = system: SW-620
[4] = system: M14
[5] = system: A498
[6] = system: SN12C
[7] = system: RXF 393
[8] = system: UACC-257
[9] = system: UO-31
[10] = system: TK-10
[11] = system: KM12
[12] = system: U-251
[13] = system: NCI-H23
[14] = system: A549
[15] = system: HCT-116
[16] = system: SK-MEL-28

Measured: GI50

COc1ccc(S(=O)(=O)NNS(C)(=O)=O)cc1OC
inactive: [1] > 100 µM | [2] > 100 µM | [3] > 100 µM | [4] > 100 µM | [5] > 100 µM | [6] > 100 µM | [7] 31.3 µM | [8] > 100 µM | [9] > 100 µM | [10] > 100 µM | [11] > 100 µM | [12] > 100 µM | [13] > 100 µM | [14] > 100 µM

CCOC(=O)C1=C(C)N(Cc2ccccc2)C(=O)C1CC#N (stereo not given)
inactive: [1] > 100 µM | [3] 34 µM | [4] > 100 µM | [5] > 100 µM | [15] > 100 µM | [6] > 100 µM | [7] 56 µM | [8] > 100 µM | [9] > 100 µM | [11] > 100 µM | [12] > 100 µM | [13] > 100 µM | [14] > 100 µM | [16] > 100 µM

OC1=CN=COc2ccccc21
inactive: [1] > 100 µM | [2] > 100 µM | [3] > 100 µM | [4] > 100 µM | [5] > 100 µM | [15] > 100 µM | [6] > 100 µM | [7] > 100 µM | [8] > 100 µM | [9] 34.7 µM | [10] > 100 µM | [11] > 100 µM | [12] > 100 µM | [13] > 100 µM | [14] > 100 µM | [16] > 100 µM

CC(=O)CC(=O)NC=O
inactive: [1] > 100 µM | [3] > 100 µM | [4] > 100 µM | [5] > 100 µM | [15] > 100 µM | [6] > 100 µM | [7] > 100 µM | [8] > 100 µM | [9] > 100 µM | [10] > 100 µM | [11] > 100 µM | [12] > 100 µM | [13] > 100 µM | [14] > 100 µM | [16] > 100 µM

C/C(=C\c1ccccc1)C(=O)c1c(C)cc(C)cc1C
inactive: [1] > 100 µM | [3] > 100 µM | [4] > 100 µM | [15] > 100 µM | [6] > 100 µM | [7] > 100 µM | [8] > 100 µM | [9] > 100 µM | [10] > 100 µM | [11] > 100 µM | [12] > 100 µM | [13] > 100 µM | [14] > 100 µM | [16] > 100 µM

CC[C@@H]1OC2(C)CC(S(=O)(=O)c3ccccc3)CC1O2 (stereo not given in full)
inactive: [1] > 100 µM | [3] > 100 µM | [4] > 100 µM | [15] > 100 µM | [6] > 100 µM | [7] > 100 µM | [8] > 100 µM | [9] > 100 µM | [11] > 100 µM | [12] > 100 µM | [13] > 100 µM | [14] > 100 µM | [16] > 100 µM

CC(=O)C1CC2(c3ccccc3)C(=O)c3ccccc3N2O1 (stereo not given)
inactive: [1] > 100 µM | [3] > 100 µM | [4] > 100 µM | [5] > 100 µM | [15] > 100 µM | [6] > 100 µM | [7] > 100 µM | [8] > 100 µM | [9] > 100 µM | [12] > 100 µM | [13] > 100 µM | [14] > 100 µM | [16] > 100 µM

Nc1ccc(C(=O)N/C(=C\c2ccc3c(c2)OCO3)c2nc3c(O)nc(S)nc3[nH]2)cc1
inactive: [1] > 100 µM | [3] > 100 µM | [4] > 100 µM | [6] > 100 µM | [7] 33.8 µM | [9] > 100 µM | [10] > 100 µM | [11] > 100 µM | [12] > 100 µM | [13] > 100 µM | [14] > 100 µM | [16] > 100 µM

COCC(C)(C)/N=C/N1Cc2cc3ccccc3nc2C1
inactive: [1] > 100 µM | [3] > 100 µM | [4] > 100 µM | [15] > 100 µM | [6] > 100 µM | [7] > 100 µM | [8] > 100 µM | [9] > 100 µM | [10] > 100 µM | [11] > 100 µM | [12] > 100 µM | [13] > 100 µM | [14] > 100 µM | [16] > 100 µM

CC(=O)N(C(C)=O)c1c(N)n(C)c(=O)[nH]c1=O
inactive: [1] > 100 µM | [2] > 100 µM | [3] > 100 µM | [4] > 100 µM | [5] > 100 µM | [15] > 100 µM | [6] > 100 µM | [7] > 100 µM | [8] > 100 µM | [9] > 100 µM | [11] > 100 µM | [13] > 100 µM | [14] > 100 µM | [16] > 100 µM

COC1=C(C(=O)OC(C)(C)C)[C@]2(C)C(C(=O)OC(C)(C)C)C(OC)=C(C(=O)OC(C)(C)C)[C@]2(C)C1C(=O)OC(C)(C)C (stereo not given in full)
inactive: [1] > 100 µM | [2] > 100 µM | [3] > 100 µM | [4] 46.9 µM | [5] > 100 µM | [15] 96.4 µM | [6] > 100 µM | [7] > 100 µM | [8] 28.2 µM | [9] 85.3 µM | [10] > 100 µM | [11] 79.1 µM | [12] > 100 µM | [13] > 100 µM | [14] > 100 µM

CCOC(=O)C(C)(C)Oc1ccc2c(-c3ccc(Cl)cc3)cc(=O)oc2c1
inactive: [1] > 100 µM | [2] > 100 µM | [3] > 100 µM | [4] > 100 µM | [5] > 100 µM | [15] > 100 µM | [6] > 100 µM | [7] > 100 µM | [8] > 100 µM | [9] > 100 µM | [10] > 100 µM | [12] > 100 µM | [13] > 100 µM | [14] > 100 µM | [16] > 100 µM

CC1SC2=NC3=C(c4ccccc4C3=O)C(c3ccc(F)cc3)N2C1=O (stereo not given)
inactive: [1] > 100 µM | [3] > 100 µM | [4] > 100 µM | [5] > 100 µM | [15] > 100 µM | [6] 63.7 µM | [8] > 100 µM | [9] 38.9 µM | [10] > 100 µM | [11] > 100 µM | [12] > 100 µM | [13] > 100 µM | [14] > 100 µM | [16] > 100 µM

Nc1ccccc1[S+]([O-])c1ccccc1 (stereo not given)
inactive: [1] > 100 µM | [2] > 100 µM | [3] > 100 µM | [4] > 100 µM | [5] > 100 µM | [15] > 100 µM | [6] > 100 µM | [7] > 100 µM | [9] > 100 µM | [10] > 100 µM | [11] > 100 µM | [12] > 100 µM | [13] > 100 µM | [14] > 100 µM | [16] > 100 µM

Nc1ccc(Nc2nc(F)nc(-c3c4ccccc4c4n3CCS4)n2)cc1
inactive: [1] 18.1 µM | [2] 10.4 µM | [3] 13 µM | [4] 17 µM | [15] 14.6 µM | [6] 15.5 µM | [7] 16 µM | [8] > 10 µM | [9] 8.38 µM | [10] 19.6 µM | [11] 10.9 µM | [12] 14.7 µM | [13] 16.2 µM | [14] 10.5 µM | [16] 15.8 µM

Cc1cc(Cl)ccc1NC1=NC(=O)C(CC(=O)Nc2ccc([N+](=O)[O-])cc2[N+](=O)[O-])S1 (stereo not given)
inactive: [1] 38.6 µM | [2] 34.9 µM | [3] 32.9 µM | [4] 24.2 µM | [5] 23.4 µM | [6] 26.9 µM | [8] 28.4 µM | [9] 17.1 µM | [10] 48.1 µM | [11] 35.1 µM | [12] 23.3 µM | [13] 20.9 µM | [14] 27.5 µM | [16] 36.8 µM

CCC(C)CC(C)CC(C)/C=C(\C)C1=C(C)CC(C)(O)O1 (stereo not given)
inactive: [1] > 100 µM | [2] > 100 µM | [3] > 100 µM | [4] > 100 µM | [5] > 100 µM | [15] 41 µM | [6] 90.4 µM | [7] 88.9 µM | [8] 79.1 µM | [9] 26.3 µM | [10] > 100 µM | [12] 61.8 µM | [13] 76.4 µM | [14] 85.7 µM | [16] > 100 µM

C[C@@H]1C2=CC[C@@]3(C)C(CCC3[C@H](C)[C@H]3C[C@@]4(C)O[C@@](c5cccnc5)(O3)OC4(C)C)[C@@H]2C2OC2[C@@]12CCC(=O)O2 (stereo not given in full)
inactive: [2] 31.5 µM | [3] 37.7 µM | [4] 26.1 µM | [5] > 100 µM | [15] 40.8 µM | [6] 33 µM | [8] 44 µM | [9] 34.4 µM | [10] 44.8 µM | [11] 38.8 µM | [12] 35.6 µM | [13] 34.2 µM | [14] 67.8 µM | [16] 90.8 µM

COC(=O)[C@@]12OC[C@]34C([C@@H](O)C1O)[C@@]1(C)CC(=O)C(O)=C(C)C1C[C@H]3OC(=O)[C@H](OC(=O)/C=C(/c1ccccc1)C(F)(F)F)[C@H]42 (stereo not given in full)
inactive: [1] 12 µM | [4] 3.54 µM | [5] 1.82 µM | [15] 2.43 µM | [6] 8.69 µM | [7] 6.05 µM | [8] 7.03 µM | [9] 6.82 µM | [10] 7.74 µM | [11] 5.74 µM | [12] 4.41 µM | [13] 1.48 µM | [14] 4.33 µM | [16] 4.72 µM
